Where two headings read alike, the source gives them in different places.
Assay: CD69 Whole Blood Assay (CD69 Hu Blood FACS)
Type: cell-based, human
Conditions: Lymphocyte, human whole blood, anti-IgM activated B lymphocytes, FACS, IC70
Method in brief: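 Human whole blood stimulated by crosslinking surface IgM with goat F(ab′)2 anti-human IgM; inhibition of CD69 expression on B lymphocytes measured by flow cytometry.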

[1] = Table 2 (unit inferred), read-out: CD69 Hu Blood FACS (IC70)
[2] = Table 1, read-out: CD69 Hu Blood FACS IC70

SMILES | IC70 [1] [nM] | IC70 [2] [nM]
Cn1cc(-c2ccnc(N3CCn4c(cc5c4CCCC5)C3=O)c2CO)cc(Nc2cn(C3CCN(C4COC4)CC3)cn2)c1=O [Example 243, 2-[3-(hydroxymethyl)-4-[1-methyl-5-[[1-[1-(oxetan-3-yl)-4-piperidyl]imidazol-4-yl]amino]-6-oxo-3-pyridyl]-2-pyridyl]-3,4,6,7,8,9-hexahydropyrazino[1,2-a]indol-1-one] | 2800 | 
COc1ccc(Nc2cc(-c3ccnc(N4CCn5c(cc6c5CC(C)(C)C6)C4=O)c3CO)cn(C)c2=O)nn1 [Example 306, 3-[3-(hydroxymethyl)-4-[5-[(6-methoxypyridazin-3-yl)amino]-1-methyl-6-oxo-3-pyridyl]-2-pyridyl]-7,7-dimethyl-1,2,6,8-tetrahydrocyclopenta[3,4]pyrrolo[3,5-b]pyrazin-4-one] | 602 | 
C[C@@H]1CN(C2COC2)CCN1c1ccc(Nc2cc(-c3ccnc(-n4ncc5c6c(sc5c4=O)CCCC6)c3CO)cn(C)c2=O)nc1 [Example 154, 3-{3′-Hydroxymethyl-1-methyl-5-[5-((R)-2-methyl-4-oxetan-3-yl-piperazin-1-yl)-pyridin-2-ylamino]-6-oxo-1,6-dihydro-[3,4′]bipyridinyl-2′-yl}-6,7,8,9-tetrahydro-3H-benzo[4,5]thieno[2,3-d]pyridazin-4-one] |  | 37.4
C[C@H]1CN(C2COC2)CCN1c1ccc(Nc2cc(-c3ccnc(-n4ccn5c6c(cc5c4=O)CCCC6)c3CO)cn(C)c2=O)nc1 [Example 176, (S)-2-(3-(hydroxymethyl)-4-(1-methyl-5-(5-(2-methyl-4-(oxetan-3-yl)piperazin-1-yl)pyridin-2-ylamino)-6-oxo-1,6-dihydropyridin-3-yl)pyridin-2-yl)-6,7,8,9-tetrahydropyrazino[1,2-a]indol-1(2H)-one] |  | 37.5
Cc1cc(Nc2cc(-c3ccnc(N4CCc5c(c(F)c6n5CCCC6)C4=O)c3CO)cn(C)c2=O)nn1C [Example 261, 2-[4-[5-[(1,5-dimethylpyrazol-3-yl)amino]-1-methyl-6-oxo-3-pyridyl]-3-(hydroxymethyl)-2-pyridyl]-10-fluoro-3,4,6,7,8,9-hexahydropyrido[3,4-b]indolizin-1-one] | 2900 | 
C[C@@H]1c2cc(Nc3cc(-c4ccnc(N5CCn6c(cc7c6CC(C)(C)C7)C5=O)c4CO)cn(C)c3=O)nn2CCN1C [Example 318, (R)-2-(5-((4,5-dimethyl-4,5,6,7-tetrahydropyrazolo[1,5-a]pyrazin-2-yl)amino)-3′-(hydroxymethyl)-1-methyl-6-oxo-1,6-dihydro-[3,4′-bipyridin]-2′-yl)-7,7-dimethyl-2,3,4,6,7,8-hexahydro-1H-cyclopenta[4,5]pyrrolo[1,2-a]pyrazin-1-one] | 108 | 
Cn1cc(-c2ccnc(N3CCn4c(cc5c4CCCC5)C3=O)c2CO)cc(Nc2ccc(N3CCN(CCO)CC3)cn2)c1=O [Example 123, 2-(4-(5-(5-(4-(2-Hydroxyethyl)piperazin-1-yl)pyridin-2-ylamino)-1-methyl-6-oxo-1,6-dihydropyridin-3-yl)-3-(hydroxymethyl)pyridin-2-yl)-3,4,6,7,8,9-hexahydro-pyrazino[1,2-a]indol-1(2H)-one] |  | 33.1
C[C@H]1CN(C2COC2)CCN1c1ccc(Nc2cc(-c3ccnc(N4CCc5c(sc6c5CC(C)(C)C6)C4=O)c3CO)cn(C)c2=O)nc1 [Example 145, 6-{3′-Hydroxymethyl-1-methyl-5-[5-((S)-2-methyl-4-oxetan-3-yl-piperazin-1-yl)-pyridin-2-ylamino]-6-oxo-1,6-dihydro-[3,4′]bipyridinyl-2′-yl}-2,2-dimethyl-2,3,5,6-tetrahydro-1H,4H-8-thia-6-aza-cyclopenta[a]inden-7-one] |  | 14.7
Cn1nc(Nc2cc(-c3ccnc(N4CCn5c(cc6c5CC(C)(C)C6)C4=O)c3CO)cn(C)c2=O)cc1C(=O)N1CCOCC1 [Example 280, 3-[3-(hydroxymethyl)-4-[1-methyl-5-[[1-methyl-5-(morpholine-4-carbonyl)pyrazol-3-yl]amino]-6-oxo-3-pyridyl]-2-pyridyl]-7,7-dimethyl-1,2,6,8-tetrahydrocyclopenta[3,4]pyrrolo[3,5-b]pyrazin-4-one] | 14.1 | 
CN1CCn2nc(Nc3cc(-c4ccnc(N5CCn6c(cc7c6CCCC7)C5=O)c4CO)nn(C)c3=O)cc2C1 [Example 133, 2-(3-(Hydroxymethyl)-4-(1-methyl-5-(5-methyl-4,5,6,7-tetrahydropyrazolo[1,5-a]pyrazin-2-ylamino)-6-oxo-1,6-dihydropyridazin-3-yl)pyridin-2-yl)-3,4,6,7,8,9-hexahydropyrazino[1,2-a]indol-1(2H)-one] |  | 227
Cn1cc(-c2ccnc(N3CCn4c(cc5c4CC(C)(C)C5)C3=O)c2CO)cc(Nc2cccc(N)n2)c1=O [Example 221, 3-[4-[5-[(6-amino-2-pyridyl)amino]-1-methyl-6-oxo-3-pyridyl]-3-(hydroxymethyl)-2-pyridyl]-7,7-dimethyl-1,2,6,8-tetrahydrocyclopenta[3,4]pyrrolo[3,5-b]pyrazin-4-one] | 121 | 
Cn1cc(-c2ccnc(N3CCn4c(cc5c4CC(C)(C)C5)C3=O)c2CO)nc(Nc2ccn3ccnc3c2)c1=O [Example 185, 2-{3-Hydroxymethyl-4-[6-(imidazo[1,2-a]pyridin-7-ylamino)-4-methyl-5-oxo-4,5-dihydro-pyrazin-2-yl]-pyridin-2-yl}-7,7-dimethyl-3,4,7,8-tetrahydro-2H,6H-cyclopenta[4,5]pyrrolo[1,2-a]pyrazin-1-one] |  | 1300
CCN1CCn2nc(Nc3cc(-c4ccnc(N5CCc6c(cc7n6CCCC7)C5=O)c4CO)cn(C)c3=O)cc2C1 [Example 208, 2-[4-[5-[(5-ethyl-6,7-dihydro-4H-pyrazolo[1,5-a]pyrazin-2-yl)amino]-1-methyl-6-oxo-3-pyridyl]-3-(hydroxymethyl)-2-pyridyl]-3,4,6,7,8,9-hexahydropyrido[3,4-b]indolizin-1-one] | 580 | 
CN1CCC(c2ccc(Nc3cc(-c4ccnc(N5CCn6c(cc7c6CCCC7)C5=O)c4CO)cn(C)c3=O)nc2)CC1 [Example 232, 2-[3-(hydroxymethyl)-4-[1-methyl-5-[[5-(1-methyl-4-piperidyl)-2-pyridyl]amino]-6-oxo-3-pyridyl]-2-pyridyl]-3,4,6,7,8,9-hexahydropyrazino[1,2-a]indol-1-one] | 51.8 | 
COCCCN1CCn2nc(Nc3cc(-c4ccnc(N5CCn6c(cc7c6CC(C)(C)C7)C5=O)c4CO)cn(C)c3=O)cc2C1 [Example 309, 3-[3-(hydroxymethyl)-4-[5-[[5-(3-methoxypropyl)-6,7-dihydro-4H-pyrazolo[1,5-a]pyrazin-2-yl]amino]-1-methyl-6-oxo-3-pyridyl]-2-pyridyl]-7,7-dimethyl-1,2,6,8-tetrahydrocyclopenta[3,4]pyrrolo[3,5-b]pyrazin-4-one] | 39.8 | 
CN1CC(c2ccc(Nc3cc(-c4ccnc(N5CCn6c(cc7c6CCCC7)C5=O)c4CO)cn(C)c3=O)nc2)C1 [Example 239, 2-[3-(hydroxymethyl)-4-[1-methyl-5-[[5-(1-methylazetidin-3-yl)-2-pyridyl]amino]-6-oxo-3-pyridyl]-2-pyridyl]-3,4,6,7,8,9-hexahydropyrazino[1,2-a]indol-1-one] | 153 | 
Cn1cc(-c2ccnc(N3CCn4c(cc5c4CC(C)(C)C5)C3=O)c2CO)cc(Nc2ccccn2)c1=O [Example 273, 3-[3-(hydroxymethyl)-4-[1-methyl-6-oxo-5-(2-pyridylamino)-3-pyridyl]-2-pyridyl]-7,7-dimethyl-1,2,6,8-tetrahydrocyclopenta[3,4]pyrrolo[3,5-b]pyrazin-4-one] | 299 | 
